SMILES | melting point
O=C(c1ccccc1)c1ccc2n1CCC2C(=O)O (configuration not stated) | 160 °C
ClCc1noc(-c2cccs2)n1 | 67 to 68 °C
CC1OC(OC2CCC3(C=O)C4CCC5(C)C(C6=CC(=O)OC6)CCC5(O)C4CCC3(O)C2)C(O)C(O)C1O (configuration not stated) | 238 °C
CC(C)CCBr | -112 °C
CC(=O)NC(=O)NC(C)=O | 154 °C
Cc1ccc(S(=O)(=O)Nc2ccccc2C)cc1 | 110 °C
O=C(Cl)c1sc(-c2ccccc2)nc1-c1ccccc1 | 139 °C
O=C(O)C=Cc1ccc(Sc2ccc(Br)cc2)c([N+](=O)[O-])c1 | 232 to 234 °C
O=S(=O)(c1ccc(N=C=S)cc1)N1CCCCC1 | 126 to 127 °C
CC(=O)C12CC3CC(CC(C3)C1)C2 | 53 to 55 °C
O=C(Cl)c1cc([N+](=O)[O-])cc([N+](=O)[O-])c1 | 74 °C
O=C1NCNC1(c1ccccc1)c1ccccc1 | 183 °C
O=C(O)C1(C(=O)O)C2CCCCCCC21 (configuration not stated) | 217 °C
O=C(c1ccccc1)c1ccccc1N=Nc1ccccc1C(=O)c1ccccc1 | 205 °C
Brc1ccc(Oc2cccc(Br)c2)cc1 | < 20 °C
CC(C)[C@@H]1COC(=O)N1 | 70 to 73 °C
O=C1CNCCCNCC(=O)NCCCN1 | 141 °C
CC1CCc2ccccc2C1 (configuration not stated) | -43.1 °C
ClCc1c(Cl)cccc1Cl | 38 °C
Cc1ccccc1N | -16.3 °C
CC1CCCCC1O (configuration not stated) | 7 °C
FC(F)(F)COCC(F)(F)F | < 25 °C
CCc1cc2c(s1)N(C)C(=O)CN=C2c1ccccc1Cl | 119 °C
CC1(C)CCCC(O)C1 (configuration not stated) | 11.5 °C
O=C(NCO)NS(=O)(=O)c1ccc(NC(=O)c2ccccc2C(=O)O)cc1 | 162 °C

SMILES | melting point
CC(C=CC=C(C)C=CC1=C(C)CC(O)CC1(C)C)=CC=CC=C(C)C=CC=C(C)C=CC1C(C)=CC(O)CC1(C)C (configuration not stated) | 196 °C
Oc1cccc(S)c1 | 16.5 °C
c1ccc(CC2CCCCN2)cc1 (configuration not stated) | 32 °C
O=C(C=Cc1ccccc1)n1ccnc1 | 127 to 133 °C
Oc1ncccc1Br | 187 °C
Cc1ccc2c(c1C)CCC1C2CCC2CC(O)CCC21C (configuration not stated) | 188 °C
Nc1ccncc1C(F)(F)F | 100 °C
O=S(=O)(c1ccccc1)c1cccs1 | 123 °C
CCCCCCCCCCCCCc1ccccc1 | 10 °C
OCc1csc(-c2ccccc2)n1 | 65 to 69 °C
COC(=O)c1ccc(C(N)=NO)cc1 | 167 to 168 °C
O=C1OC(/C=C/c2ccc([N+](=O)[O-])cc2)Cc2ccccc21 (configuration not stated) | 180 to 182 °C
O=c1[nH]c2ccccc2n1C1=CCNCC1 | 195 to 200 °C
COc1cccc(C=O)c1OC | 52 °C
Nc1ccc(Br)cn1 | 138 °C
CCC(=O)OC1CCC2C3CCC4=CC(=O)CCC4(C)C3CCC12C (configuration not stated) | 120 °C
c1ccc2c3c([nH]c2c1)CCCCCC3 | 74 °C
CC1(C)OCC(C(O)C(O)C2COC(C)(C)O2)O1 (configuration not stated) | 114 °C
Nc1ccc(-c2cn3c(n2)SCC3)cc1 | 225 to 226 °C
c1ccc2[nH]ncc2c1 | 148 °C
Oc1cc(F)ccc1F | 38 °C
CC12CCC(/C(=N/O)C/C1=N\O)C2(C)C (configuration not stated) | 209 °C
CS(=O)(=O)c1ccc(F)c([N+](=O)[O-])c1 | 152 to 158 °C
FC(F)(F)c1n[nH]c(=S)[nH]1 | 161 to 164 °C
C=C(C)C(=O)OCC | -60 °C

Other lines, results leading:

melting point | SMILES
216 to 217 °C | N#Cc1c(-c2ccc(Cl)cc2)n[nH]c1N
139 °C | O=C1CCc2ccc(OCCCCN3CCN(c4cccc(Cl)c4Cl)CC3)cc2N1
51 to 53 °C | CCOC(=O)C1CCN(c2cc(C#N)ccn2)CC1
102 °C | CON(C)C(=O)Nc1ccc(Oc2ccc3c(c2)OC(C)(OC)CC3(C)C)cc1 (configuration not stated)
30 to 32 °C | CCCCCCCCOc1ccc(C(C)=O)cc1
238 to 240 °C | O=C(O)c1ccc(-c2ncccn2)cc1
139 °C | O=c1[nH]oc2ccccc12
106 °C | COC(=O)CSc1cc(N=c2sc(=O)n3n2CCCC3)c(F)cc1Cl
146 to 148 °C | Cc1cc(C(=O)O)oc1C
161 to 162 °C | CC(=O)Nc1c(C(=O)Cc2c(C)cc(C)cc2C)oc2ccccc12
229 to 232 °C | Oc1cc(C(F)(F)F)nc2ccc(OC(F)(F)F)cc12
273 to 275 °C | Nc1c([N+](=O)[O-])cnc2ccccc12
116 °C | COc1ccc(N(CCCC(=O)O)C(=O)c2ccc(Cl)cc2)cc1
235 °C | O=C1C=C(NCc2ccc([N+](=O)[O-])cc2)C(=O)c2ccccc21
41 °C | O=C1Cc2cccc(F)c21
201 °C | Cc1ccc(C(=O)C2=NOC3C(=O)N(c4ccc(C(=O)O)cc4)C(=O)C23)cc1 (configuration not stated)
71 °C | CC(C)(C)c1cc(C(C)(C)C)cc(C(C)(C)C)c1
47 °C | CCN(CC)C(=O)c1ccccc1CC(=O)c1ccccc1C
133 to 135 °C | O=Cc1ccc(-c2ccc(-c3cccs3)s2)s1
85 to 87 °C | CCOC(=O)c1c(-c2cccs2)csc1N
72 to 74 °C | CCOC(CN1C(=O)c2ccccc2C1=O)OCC

melting point | SMILES
115 to 118 °C | C=CCc1cc(C(C)=O)ccc1O
203 °C | CCOC(=O)C1=C(C)NC(=O)NC1c1ccccc1C(F)(F)F (configuration not stated)
131 °C | C#CCOc1cc(-n2nc(C(C)(C)C)oc2=O)c(Cl)cc1Cl
150 °C | CCOC(=O)c1c(C)[nH]c(=O)[nH]c1=S
212 to 215 °C | Nc1c(Cl)c(Cl)nc(Cl)c1Cl
53 to 55 °C | Ic1cccc(Cn2cncn2)c1
75 to 78 °C | O=Cc1ccc(-c2ccccc2Cl)o1
176 °C | CC(=O)Nc1cc([N+](=O)[O-])ccc1Nc1ccc(C)cc1
180 °C | O=[N+]([O-])c1ccc(O)c2ncccc12
134 to 135 °C | OCCCc1nc2cc(C(F)(F)F)ccc2[nH]1
232 to 233 °C | CC12CCC(CC/C1=N\Nc1ccc([N+](=O)[O-])cc1[N+](=O)[O-])C2(C)C (configuration not stated)
104 to 106 °C | COC(=O)c1ccc(NC(C)C)c(N)c1
178 °C | CC1=C(C(=O)OCC(C)C)C(c2ccc3c(c2)OCO3)NC(=O)N1 (configuration not stated)
138 to 139 °C | C=CCNC(=S)Nc1sc2c(c1C(=O)OCC)CCN(Cc1ccccc1)C2
78 to 79 °C | Cc1nc(-c2ccc(Br)s2)cs1
93 to 95 °C | O=[N+]([O-])c1cccc(Oc2ccccn2)c1
138 to 140 °C | Nc1sccc1-c1nc2ccccc2s1
59 to 63 °C | COc1cccc(CO)c1O
228 °C | COS(=O)(=O)c1cc([N+](=O)[O-])ccc1C#Cc1ccc([N+](=O)[O-])cc1S(=O)(=O)OC
178 to 182 °C | O=c1cc(C(F)(F)F)c2cc(Cl)c(O)cc2o1
90 °C | CCOc1c(N2CCOCC2)cnn(C)c1=O

— a melting point compilation (Tetko et al.)
